# According to patent US11957757B2, “Method for preparing stabilized metal ion ligand nanocomplex and compositions thereof” (AUBURN UNIVERSITY, priority 2017, dated 2024):
# Tests used:
# [1] = system: DU145-TXR drug-resistant prostate cancer cells; assay: MTT cytotoxicity assay, DU145-TXR cells; type: cell-based; details: for cell toxicity: equivalent concentrations, 48 hours
# Protocol: Cells were cultured at 37° C. in a humidified atmosphere containing 5% CO2. […] Cytotoxicity was calculated using the following equation: Cell Viability (%)=(ATest/Acontrol)×100%. Furthermore, IC50 was calculated with SigmaPlot software based on a dose-response curve.
# DU145-TXR cells [2] = assay: Intracellular ROS, H2DCFDA dye method; type: cell-based; details: 100 μM, positive control
# Protocol: The generation of ROS was determined with a 2′,7′-dichlorodihydrofluorescein diacetate (H2DCFDA) dye method. Briefly, cells were seeded in a dark-walled, clear-bottomed 96-well plate with 50,000 cells per well and incubated at 37° C. overnight before study. Cells were incubated with 20 μM H2DCFDA in Hank's Buffered Salt Solution (HBSS, pH=7.4) for 30 minutes at 37° C. in the dark, and treated with different formulations.
# DU145-TXR cells [3] = assay: Endoplasmic reticulum (ER) staining; details: 0.5 μM, 8 hours
smiles,measurement,setting,value
"[Cl][Cu][Cl] [CuCl2, copper chloride]",cell toxicity,[1],did not show significant cell toxicity
OO [H2O2],ROS level,DU145-TXR cells [2],increased
"CCN(CC)C(=S)S [DDC-Na, sodium diethyldithiocarbamatetrihydrate]",cell toxicity,[1],did not show significant cell toxicity
CC(=O)O[C@H]1C(=O)[C@@]2(C)[C@H]([C@H](OC(=O)c3ccccc3)[C@]3(O)C[C@H](OC(=O)[C@H](O)[C@@H](NC(=O)c4ccccc4)c4ccccc4)C(C)=C1C3(C)C)[C@]1(OC(C)=O)CO[C@@H]1C[C@@H]2O [paclitaxel],IC50,[1]; 48 hours of treatment,2580 nM
same,ER structure (ER-specific dye staining),DU145-TXR cells [3],typical reticulate structure
